Measured values published in ChEMBL document CHEMBL1275430, “Impact of mycophenolic acid on the functionality of human polymorphonuclear neutrophils and dendritic cells during interaction with Aspergillus fumigatus” (2008).

What was measured:
Assay type in all cases: functional
[1] = Induction of oxidative burst of polymorphonuclear neutrophil co-cultured with Aspergillus fumigatus germlings at 10 uM after 60 minutes relative to untreated control
[2] = Inhibition of Aspergillus fumigatus-mediated dendritic cell maturation assessed as decreased CD86 expression at 10 uM
[3] = Induction of IL-2 expression in […] dendritic cell co-cultured with Aspergillus fumigatus germ tube at 10 uM after 7 days by RT-PCR
[4] = Inhibition of Aspergillus fumigatus-mediated dendritic cell maturation assessed as decreased CD1a expression at 10 uM
[5] = Induction of TNF-alpha expression in […] dendritic cell co-cultured with Aspergillus fumigatus germ tube at 10 uM after 7 days by RT-PCR
Aspergillus fumigatus [6] = test: Effect on polymorphonuclear neutrophil killing of Aspergillus fumigatus assessed as survival rate of fungi at 10 ug/ml (reference value: 53% +/- 11%)
[7] = Induction of oxidative burst of polymorphonuclear neutrophil co-cultured with Aspergillus fumigatus germlings at 10 uM after 120 minutes relative to untreated control
[8] = Inhibition of Aspergillus fumigatus-mediated dendritic cell maturation assessed as decreased CD40 expression at 10 uM
[9] = Inhibition of Aspergillus fumigatus-mediated dendritic cell maturation assessed as decreased CD83 expression at 10 uM
[10] = Inhibition of Aspergillus fumigatus-mediated dendritic cell maturation assessed as decreased CD80 expression at 10 uM
Aspergillus fumigatus [11] = test: Effect on polymorphonuclear neutrophil killing of Aspergillus fumigatus assessed as survival rate of fungi (reference value: 53% +/- 11%)

Compound	fold change (FC) [1]	inhibition at 10 µM [2] [%]	Activity [3] [%]	inhibition at 10 µM [4] [%]	Activity [5] [%]	survival at 10 µg/mL (Aspergillus fumigatus [6]) [%]	fold change (FC) [7]	inhibition at 10 µM [8] [%]	inhibition at 10 µM [9] [%]	inhibition at 10 µM [10] [%]	Survival (Aspergillus fumigatus [11]) [%]
COc1c(C)c2c(c(O)c1C/C=C(\C)CCC(=O)O)C(=O)OC2 [MYCOPHENOLIC ACID]	3.8	43.8	94	68.8	52	57	2.8	39.3	21.1	46.7	–
CCCCCCCCCCCCCC(=O)O[C@@H]1[C@@H](C)[C@@]2(O)[C@@H](C=C(CO)C[C@]3(O)C(=O)C(C)=C[C@@H]23)[C@@H]2C(C)(C)[C@]12OC(C)=O [PHORBOL MYRISTATE ACETATE]	–	–	–	–	–	–	–	–	–	–	26
